Data from patent US20090246198A1, “MAPK/ERK KINASE INHIBITORS AND METHODS OF USE THEREOF” (TAKEDA PHARMACEUTICAL COMPANY LIMITED, priority 2008, published 2009).

Biological target: T1, MEK1 (Homo sapiens, UniProt Q02750, DEL33-52/S218E/S222D)
T1 construct: 6-histidine tag (N); made in house; host or cells: MEK1: baculovirus / Spodoptera frugiperda Sf9; ERK1: E. coli
Assay: MEK1 inhibition, fluorescence polarization (IMAP) assay with ERK1 and FI-Erktide
Type: biochemical
Details: 1 nM MEK1, 25 nM ERK1, 400 μM ATP, 22 min at room temperature; read-out: pIC50 (nM); IC50 of Exemplified Compounds against MEK1 (converted)
Description: […] […] […] SEQ ID NO: 2 is the DNA sequence that was used to encode SEQ ID NO: 1.
The inhibitory properties of compounds relative to MEK1 or MEK2 may be determined using a black 384-well-plate format under the following reaction conditions: 50 mM HEPES pH 7.3, 10 mM NaCl, 10 mM MgCl2, 0.01% Brij35, 1 nM MEK1 or 4 nM MEK2, 25 nM ERK1, 400 μM ATP, 500 nM IPTTPITTYFFFK-5FAM-COOH (FI-Erktide), and 1% DMSO. Reaction product is determined quantitatively by fluorescent polarization using progressive IMAP beads from Molecular Devices.
The assay reaction may be initiated as follows: 2 μl of the mixture of 1.5 μM FI-Erktide and 75 nM ERK with 2 μl of inhibitor (2 fold serial dilutions for 11 data points for each inhibitor) containing 3% DMSO were added to each well of the plate, followed by the addition of 2 μl of the mixture of 3 nM MEK1 or 12 nM MEK2and 1200 μM ATP to initiate the reaction (final enzyme concentration was 1 nM for MEK1 or 4 nM for MEK2). The reaction mixture may then be incubated at room temperature for 22 min, and quenched and developed by addition of 20 μl of 1:200 dilution of progressive IMAP beads (Molecular Devices) in 80% buffer A, 20% buffer B and 0.003% Tween 20. Fluorescence polarization of the resulting reaction mixtures may be measured after a 1 hour incubation at room temperature.
IC50 values may be calculated by non-linear curve fitting of the compound concentrations and fluorescence polarization signal to the standard IC50 equation.

T1 sequence (Q02750 with tags, fused parts or gaps DEL33-52/S218E/S222D): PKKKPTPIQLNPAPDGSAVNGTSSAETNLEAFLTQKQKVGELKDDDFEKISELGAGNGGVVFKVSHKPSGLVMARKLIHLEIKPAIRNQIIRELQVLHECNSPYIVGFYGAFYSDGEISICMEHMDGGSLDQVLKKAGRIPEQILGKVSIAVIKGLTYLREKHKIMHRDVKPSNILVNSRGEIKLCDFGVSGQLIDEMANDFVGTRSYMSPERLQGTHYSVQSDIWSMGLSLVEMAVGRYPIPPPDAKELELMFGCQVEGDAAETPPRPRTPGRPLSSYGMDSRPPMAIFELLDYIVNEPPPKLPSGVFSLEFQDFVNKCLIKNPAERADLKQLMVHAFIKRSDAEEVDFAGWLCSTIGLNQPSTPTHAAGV

IC50 [nM]	Compound
< 100	Cn1c(=O)c(F)c(Nc2ccc(I)cc2F)c2c(=O)n(C[C@H](O)CO)ccc21 [Example 3S, (S)-6-(2,3-dihydroxypropyl)-3-fluoro-4-(2-fluoro-4-iodophenylamino)-1-methyl-1,6-naphthyridine-2,5(1H,6H)-dione]
< 100	Cn1c(=O)cc(Nc2ccc(I)cc2F)c2c(=O)n(C[C@@H](O)CO)ccc21 [Example 1R, (R)-6-(2,3-dihydroxypropyl)-4-(2-fluoro-4-iodophenylamino)-1-methyl-1,6-naphthyridine-2,5(1H,6H)-dione]
< 100	Cn1c(=O)cc(Nc2ccc(Br)cc2F)c2c(=O)n(CC(O)CO)ccc21 (racemic) [Example 2, 4-(4-bromo-2-fluorophenylamino)-6-(2,3-dihydroxypropyl)-1-methyl-1,6-naphthyridine-2,5(1H,6H)-dione]
< 100	Cn1c(=O)c(F)c(Nc2ccc(I)cc2F)c2c(=O)n(C[C@@H](O)CO)ccc21 [Example 3R, (R)-6-(2,3-dihydroxypropyl)-3-fluoro-4-(2-fluoro-4-iodophenylamino)-1-methyl-1,6-naphthyridine-2,5(1H,6H)-dione]
< 100	C#Cc1ccc(Nc2c(F)c(=O)n(C)c3ccn(C[C@@H](O)CO)c(=O)c23)c(F)c1 [Example 5, (R)-6-(2,3-dihydroxypropyl)-4-(4-ethynyl-2-fluorophenylamino)-3-fluoro-1-methyl-1,6-naphthyridine-2,5(1H,6H)-dione]
≥ 100	Cn1c(=O)cc(Nc2ccc(C3CC3)cc2F)c2c(=O)n(C[C@@H](O)CO)ccc21 [Example 6, (R)-4-(4-cyclopropyl-2-fluorophenylamino)-6-(2,3-dihydroxypropyl)-1-methyl-1,6-naphthyridine-2,5(1H,6H)-dione]
< 100	Cn1c(=O)cc(Nc2ccc(I)cc2F)c2c(=O)n(C[C@H](O)CO)ccc21 [Example 1S, (S)-6-(2,3-dihydroxypropyl)-4-(2-fluoro-4-iodophenylamino)-1-methyl-1,6-naphthyridine-2,5(1H,6H)-dione]
≥ 100	Cn1c(=O)cc(Nc2ccc(Br)cc2F)c2c(=O)n(C[C@@H](O)CO)ccc21 [Example 2R, (R)-4-(4-bromo-2-fluorophenylamino)-6-(2,3-dihydroxypropyl)-1-methyl-1,6-naphthyridine-2,5(1H,6H)-dione]
< 100	Cn1c(=O)cc(Nc2ccc(Br)cc2F)c2c(=O)n(C[C@H](O)CO)ccc21 [Example 2S, (S)-4-(4-bromo-2-fluorophenylamino)-6-(2,3-dihydroxypropyl)-1-methyl-1,6-naphthyridine-2,5(1H,6H)-dione]
< 100	Cn1c(=O)c(F)c(Nc2ccc(Br)cc2F)c2c(=O)n(C[C@@H](O)CO)ccc21 [Example 4, (R)-4-(4-bromo-2-fluorophenylamino)-6-(2,3-dihydroxypropyl)-3-fluoro-1-methyl-1,6-naphthyridine-2,5(1H,6H)-dione]
